Consider three compounds from ChEMBL document CHEMBL1201862, “PubChem BioAssay data set” (2004).

The source made the active and inactive calls. Cut-off read from the data, not from the text of the source, for most assays here: actives have a measured EC50 and inactives only a lower limit.

In test [1] the target is T1, Caspase-3 (Homo sapiens, UniProt P42574).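 Note: Dose-response selectivity test against caspase-3 for candidate inhibitors of sentrin-specific proteases (SENPs).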
T1 sequence (P42574 whole entry): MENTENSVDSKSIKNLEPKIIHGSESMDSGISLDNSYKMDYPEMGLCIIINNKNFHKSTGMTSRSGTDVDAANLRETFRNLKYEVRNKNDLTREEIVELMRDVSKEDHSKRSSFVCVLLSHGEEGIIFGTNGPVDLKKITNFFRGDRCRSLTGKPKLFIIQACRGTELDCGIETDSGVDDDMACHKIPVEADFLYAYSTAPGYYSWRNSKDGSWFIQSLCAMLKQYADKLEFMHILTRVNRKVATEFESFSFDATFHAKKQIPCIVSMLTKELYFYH
Type of test: functional.

The test system of test [2] is Streptococcus. Put plainly: Group A Streptococcus viability loss, dose response, counter-screen for streptokinase expression inhibitor project, luminescence, BacTiterGlo (AID 1915).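 Note: potency for reduction of bacterial viability or growth.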 Type of test: functional, organism-based. Background: The purpose of a counterscreen is to sort out artefacts and off-target activity.
Test [3] has as its target T2, Streptokinase A (Streptococcus pyogenes serotype M1, UniProt P10520).
T2 sequence (P10520 whole entry): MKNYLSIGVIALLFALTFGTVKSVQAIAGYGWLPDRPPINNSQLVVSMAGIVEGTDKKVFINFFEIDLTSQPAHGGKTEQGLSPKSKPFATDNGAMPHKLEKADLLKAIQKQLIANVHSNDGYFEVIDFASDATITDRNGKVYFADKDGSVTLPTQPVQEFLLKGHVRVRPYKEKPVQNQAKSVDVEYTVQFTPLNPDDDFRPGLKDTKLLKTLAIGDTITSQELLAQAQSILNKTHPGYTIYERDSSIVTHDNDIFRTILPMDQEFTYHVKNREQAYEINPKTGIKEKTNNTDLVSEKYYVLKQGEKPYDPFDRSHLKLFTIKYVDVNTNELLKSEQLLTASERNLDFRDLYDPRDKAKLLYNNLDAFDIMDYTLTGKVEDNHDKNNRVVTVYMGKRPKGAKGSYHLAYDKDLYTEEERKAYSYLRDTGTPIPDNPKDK
Kind of test: S. pyogenes streptokinase expression inhibitors, potency, dose response, plasminogen activation absorbance, OD405 (AID 1914).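 Note: secreted streptokinase activity via plasminogen activation per viability signal from cell pellet.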 The format is functional, Streptococcus pyogenes M1 GAS.

The target in test [4] is T3, Protein RecA (Mycobacterium tuberculosis, UniProt P9WHJ3).
T3 sequence (P9WHJ3 whole entry): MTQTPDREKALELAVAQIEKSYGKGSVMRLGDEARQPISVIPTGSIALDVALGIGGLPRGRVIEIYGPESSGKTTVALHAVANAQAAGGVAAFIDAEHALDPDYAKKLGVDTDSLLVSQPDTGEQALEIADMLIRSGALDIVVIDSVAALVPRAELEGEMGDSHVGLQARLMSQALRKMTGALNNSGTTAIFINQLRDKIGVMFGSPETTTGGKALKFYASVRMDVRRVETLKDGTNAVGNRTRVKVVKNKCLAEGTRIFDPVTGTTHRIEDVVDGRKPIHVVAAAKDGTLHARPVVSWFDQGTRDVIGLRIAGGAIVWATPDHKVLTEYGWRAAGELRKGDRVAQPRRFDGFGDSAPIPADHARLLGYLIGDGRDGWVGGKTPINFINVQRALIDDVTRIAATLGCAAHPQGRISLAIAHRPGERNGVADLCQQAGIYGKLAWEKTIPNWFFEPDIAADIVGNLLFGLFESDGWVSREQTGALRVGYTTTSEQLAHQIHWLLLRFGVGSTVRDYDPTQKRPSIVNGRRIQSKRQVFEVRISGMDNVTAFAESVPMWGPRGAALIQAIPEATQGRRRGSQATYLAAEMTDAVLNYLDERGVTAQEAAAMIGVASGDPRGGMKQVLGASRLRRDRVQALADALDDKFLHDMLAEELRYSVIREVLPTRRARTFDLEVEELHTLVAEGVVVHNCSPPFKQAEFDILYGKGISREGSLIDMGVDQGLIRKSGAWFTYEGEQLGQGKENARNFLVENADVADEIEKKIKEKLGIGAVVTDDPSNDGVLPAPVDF
Put plainly: Fluorescence Cell-Free Homogeneous Dose Retest to Identify Inhibitors of RecA-Intein Splicing Activity. [Related pubchem assays (depositor defined):AID2097, AID2223, AID489010, AID492950]. Type of test: functional.

In test [5] the target is T4, Replicative DNA helicase DnaB (Mycobacterium tuberculosis, UniProt P9WMR3).
T4 sequence (P9WMR3 whole entry): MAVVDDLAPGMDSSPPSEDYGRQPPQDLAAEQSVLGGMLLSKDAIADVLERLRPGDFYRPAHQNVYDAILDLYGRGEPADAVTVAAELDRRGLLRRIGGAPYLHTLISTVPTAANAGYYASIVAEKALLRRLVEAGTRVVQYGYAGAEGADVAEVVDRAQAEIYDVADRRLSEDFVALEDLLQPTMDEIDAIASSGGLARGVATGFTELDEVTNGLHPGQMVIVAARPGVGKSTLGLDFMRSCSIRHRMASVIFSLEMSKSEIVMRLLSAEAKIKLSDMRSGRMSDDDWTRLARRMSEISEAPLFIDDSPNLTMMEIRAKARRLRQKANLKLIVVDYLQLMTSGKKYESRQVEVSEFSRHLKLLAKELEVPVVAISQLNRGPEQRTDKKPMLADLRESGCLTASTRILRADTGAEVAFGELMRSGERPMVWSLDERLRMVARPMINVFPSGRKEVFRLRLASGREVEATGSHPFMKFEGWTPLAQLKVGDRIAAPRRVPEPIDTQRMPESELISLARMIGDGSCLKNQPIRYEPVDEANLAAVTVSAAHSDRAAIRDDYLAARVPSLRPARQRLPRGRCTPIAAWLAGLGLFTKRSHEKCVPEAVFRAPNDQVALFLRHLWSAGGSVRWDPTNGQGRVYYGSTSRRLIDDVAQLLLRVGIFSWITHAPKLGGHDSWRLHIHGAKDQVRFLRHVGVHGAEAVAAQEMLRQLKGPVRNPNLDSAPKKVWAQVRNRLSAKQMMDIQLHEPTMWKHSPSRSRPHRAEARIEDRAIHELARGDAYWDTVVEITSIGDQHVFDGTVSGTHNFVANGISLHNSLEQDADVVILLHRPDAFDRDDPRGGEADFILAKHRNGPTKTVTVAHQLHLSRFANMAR
Put plainly: DnaB intein splicing inhibitors, dose response, biochemical, cell-free fluorescence (AID 449749). The format is functional.

For orientation: IC50 means the concentration at which inhibition is half-maximal. Consider `CCCC[n+]1ccn(C2=C([N-]S(=O)(=O)c3ccc(Cl)cc3)C(=O)c3ccccc3C2=O)c1`, for which, in test [1], the IC50 was 55.7 µM (active).

For orientation: EC50 means the concentration at which the effect is half-maximal. For orientation: AC50 means the concentration giving half of the maximal activity seen. For the compound `CC(=O)c1cccc2c1N=C(c1[nH]c3ccccc3c1O)C2=O`, the EC50 in test [2] is > 150 µM (not active); in test [3], 116 µM (active); in test [4], 2.76 µM (active). The IC50 in test [1] is 11.1 µM (active). In addition, the AC50 in test [5] is 3.1 µM (active).

For the compound `CCC1CCCCN1S(=O)(=O)c1ccc(NC(=O)c2nc(S(C)(=O)=O)ncc2Cl)cc1` (stereo not given), the EC50 in test [2] was 13.2 µM (active); in test [3] it was 0.66 µM (active); in test [4], 1.11 µM (active). In test [5], the half-maximal activity concentration (AC50) is 1.43 µM (active).
